Assay results as given in patent US8252832B2, “Kinesin inhibitors as cancer therapeutics” (Novartis AG, priority 2007, dated 2012).
pIC50: −log10 of the molar value.

Tests used:
[1] = molecular target: T1, motor domain of human KSP (Eg 5, KNSL1) (Homo sapiens, UniProt P52732); experiment: Assay for determining KSP activity (microtubule/KSP ATPase, Biomol Green); assay type: biochemical; details: read-out: In vitro activity (IC-50 - nm)
T1 construct: KSP motor protein (i.e., the KSP motor domain); made in house
T1 sequence (P52732 18-359 limits assumed): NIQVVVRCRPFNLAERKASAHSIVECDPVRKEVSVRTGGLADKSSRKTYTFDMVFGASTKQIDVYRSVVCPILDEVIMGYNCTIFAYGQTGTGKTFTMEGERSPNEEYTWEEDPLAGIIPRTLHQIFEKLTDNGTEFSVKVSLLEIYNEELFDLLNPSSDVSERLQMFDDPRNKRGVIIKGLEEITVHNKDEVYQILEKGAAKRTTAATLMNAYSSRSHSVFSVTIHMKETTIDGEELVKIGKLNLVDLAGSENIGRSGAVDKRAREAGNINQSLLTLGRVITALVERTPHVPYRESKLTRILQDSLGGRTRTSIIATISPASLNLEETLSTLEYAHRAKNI
Experimental: Purified microtubules obtained from bovine brain were purchased from Cytoskeleton Inc. (Denver, Colo., USA). The motor domain of human KSP (Eg 5, KNSL1) was cloned, expressed, and purified to greater than 95% homogeneity. Biomol Green™ was purchased from Affinity Research Products Ltd. (Matford Court, Exeter, Devon, United Kingdom). Microtubules and KSP motor protein (i.e., the KSP motor domain) were diluted in assay buffer (20 mM Tris-HCl (pH 7.5), 1 mM MgCl2, 10 mM DTT and 0.25 mg/mL BSA) to a final concentration of 35 μg/mL microtubules and 45 nM KSP. The microtubule/KSP mixture was then pre-incubated at 37° C. for 10 min to promote the binding of KSP to microtubules.
To each well of the testing plate (384-well plate) containing 1.25 μL of inhibitor or test compound in DMSO (or DMSO only, in the case of controls) were added 25 μL of ATP solution (ATP diluted to a concentration of 300 μM in assay buffer) and 25 μL of the above-described microtubule/KSP solution. The plates were incubated at RT for 1 hour. Following incubation, 65 μL of Biomol Green™ (a malachite green-based dye that detects the release of inorganic phosphate) was added to each well. The plates were incubated for an additional 5-10 minutes then the absorbance at 630 nm was determined using a Victor II plate reader. The amount of absorbance at 630 nm corresponded to the amount of KSP activity in the samples. The IC50 of each inhibitor or test compound was then determined based on the decrease in absorbance at 630 nm at each concentration, via nonlinear regression using either XLFit for Excel or Prism data analysis software by GraphPad Software Inc.

[2] = In vivo pharmacokinetic parameters (clearance, half-life, AUC)
[3] = system: primary blast cells from AML patients; experiment: Colony formation assay in methylcellulose containing medium, AML blasts; assay type: cell-based, human
Experimental: Primary blast cells from AML patients were tested for sensitivity to compound IIa as shown below. Frozen AML blasts from peripheral blood were obtained from AllCell LLC. (Emeryville, Calif.). Three frozen vials containing ˜1×10^7 PBMCs were purchased. Peripheral blood mononuclear cells (PBMCs) from three newly diagnosed AML patients with a high percentage of blasts (#06-188, 80%; #06-366, 88%; #06-503, 73%) were cultured for several weeks and treated with the KSP inhibitors. The vials were rapidly thawed and the cells were cultured in Iscove's DMEM supplemented with 10% FBS and the following cytokines all at 10 ng/ml: GM-CSF, G-CSF, SCF, IL-3, and IL-6 (all from R&D Systems). Three assays were performed on the cells as follows: • CellTiter-Glo® assay on AML blasts. PBMCs containing AML blasts were seeded in 96-well plates (5000/well) and treated with various concentrations of the compound IIa (10 pM to 10 nM) for 48 hours before cells survival was measured as described above. GI50 values (nM) were calculated as for cell lines. • Cell cycle analysis using propidium iodide staining. […] The DNA content of the fixed and stained cells was analyzed by the BD FACSCalibur flow cytometer using the CellQuest software. • Colony formation assay in methylcellulose containing medium. […] Colonies were counted under a microscope after 2 weeks. […]

SMILES: CC(C)(C)[C@H](c1nc(-c2cc(F)ccc2F)cn1Cc1ccccc1)N(CC[C@H](N)CF)C(=O)CO [Compound IIa]
- pIC50 [1]: 9.10
- AUC [2]: 1.93 µg·h/mL
- half-life [2]: 1.83 h
- clearance ([2]; read-out: In vivo Clearance rate): 2.46 L/h/kg
- colonies ([3]; 0.5 nM and above, samples #06-366, #06-188, #06-503, 2 weeks): absent
- number of colonies ([3]; sample #06-366, 0.2 nM, 2 weeks): markedly reduced
